From patent US20090197955A1, “METHODS OF IMPROVING DHA DEPOSITION AND RELATED FUNCTION AND/OR DEVELOPMENT” (Monsanto Company, priority 2008, published 2009)

Experiment: Fatty acid composition of pig tissues (ham, loin, belly, skin) after feeding SDA ethyl ester diets, 35 day study
Format: in vivo, pigs
Procedure: A 35 day study was conducted to determine whether pigs fed a diet containing SDA could enhance tissues with improved fatty acid profiles including increased levels of SDA, EPA, and DHA.
Four test diets (Treatment 2, 3, 4, and 5) with SDA ethyl ester substituted for corn oil to provide 0.2, 0.4, 0.6 and 0.8% (w/w SDA active ingredient, as-is basis) were fed ad libitum to one pen of four pigs throughout the 35-day test period Table 4). All diets were fed in meal form. Treatment 6 was fed the same diet as Treatment 5, but for a duration of only 21 days.
All pigs were individually weighed at initiation of the acclimation and test period, and immediately prior to slaughter. Feed consumption per pen was recorded. Upon completion of the feeding period, pigs were slaughtered for tissue collection and carcass evaluation. Pigs were slaughtered using standard industry practices (electrical stunning, exsanguinations, scalding, dehairing and evisceration). Live weights prior to slaughter and hot carcass weights were recorded. The left side of each carcass was fabricated and samples were obtained from the loin (longissimus muscle), ham (semimembranosus muscle) and belly (a section from the center of the belly) for sensory evaluation, fatty acid, and proximate analysis. Prior to removing the sample for sensory and fatty and proximate analysis from the belly the firmness of the belly was evaluated using a flop test. At 24 hr postmortem fat thickness (10th rib), loin eye area (10th rib), visual color, firmness and marbling, Minolta color (L*a*b*), pH, and drip loss were measured.
In order to evaluate the fatty acid composition of pig tissues (loin, ham, skin, and belly), samples were stored at −80° C. until evaluation. After thawing, ˜22 g of fresh pig tissue was chopped into small pieces and thoroughly mixed before 10 g was sub sampled and lyophilized. Lyophilized samples were ground in 30 ml Sarstedt tubes with two ball bearings using a Mega Grinder. Ground samples (loin and ham: 50 mg; skin: 100 mg; belly: 150 mg; diet: 500 mg) were directly methylated with sulfuric acid in methanol (loin and ham: 1 mL; skin: 3 mL; belly: 10 mL; diet: 1.5 mL) sealed in the presence of butylated hydroxytoluene (50 mg BHT in 100 ml reagent) in reflux conditions of 90° C. Resultant fatty acid methyl esters (FAME's) were separated by capillary gas chromatography (GC) and detected by flame ionization detector (FID). The column used was a Supelco Omegawax 250 capillary column with dimensions of 30 m×0.25 mm×0.25 μm film thickness. The run time was 32 minutes. Peaks were identified based on their relative retention time compared to a FAME reference mixture. Quantification was achieved by using an internal standard (c15:0 triacylglyceride (TAG) for pig tissue samples and c17:0 TAG for diet samples). Results are reported as FA g/100 g fat with theoretical response correction.
For Table 6 below, each value represents g/100 g total fatty acids a mean of 4 samples (1 sample from each of 4 pigs) per treatment.

CC/C=C\C/C=C\C/C=C\C/C=C\CCCCC(=O)O [SDA, stearidonic acid]
22:3 n-6, ham (0.8% SDA feed, 35 days): 0.24 g FA per 100 g fat
22:5 n-3 (DPA), ham (0.8% SDA feed, 35 days): 0.83 g FA per 100 g fat
22:6 n-3 (DHA), ham (0.8% SDA feed, 35 days): 0.13 g FA per 100 g fat
24:1 n-9, ham (0.8% SDA feed, 35 days): 0.07 g FA per 100 g fat
Total PUFA, ham (0.8% SDA feed, 35 days): 18.89 g FA per 100 g fat
Total monoenes, ham (0.8% SDA feed, 35 days): 43.54 g FA per 100 g fat
Total n-3, ham (0.8% SDA feed, 35 days): 2.64 g FA per 100 g fat
Total n-6, ham (0.8% SDA feed, 35 days): 16.25 g FA per 100 g fat
Total saturates, ham (0.8% SDA feed, 35 days): 33.18 g FA per 100 g fat
n-6/n-3, ham (0.8% SDA feed, 35 days): 6.16
12:0, ham (SDA 0.2%, 35 Day): 2.04 mg FA/100 g of fresh tissue
14:0, ham (SDA 0.2%, 35 Day): 34.0 mg FA/100 g of fresh tissue
16:0, ham (SDA 0.2%, 35 Day): 673.5 mg FA/100 g of fresh tissue
16:1 n-7, ham (SDA 0.2%, 35 Day): 116.6 mg FA/100 g of fresh tissue
18:0, ham (SDA 0.2%, 35 Day): 313.7 mg FA/100 g of fresh tissue
18:1 n-7, ham (SDA 0.2%, 35 Day): 146.2 mg FA/100 g of fresh tissue
18:1 n-9, ham (SDA 0.2%, 35 Day): 1303.4 mg FA/100 g of fresh tissue
18:2 n-6, ham (SDA 0.2%, 35 Day): 264.7 mg FA/100 g of fresh tissue
18:3 n-3, ham (SDA 0.2%, 35 Day): 5.60 mg FA/100 g of fresh tissue
18:4 n-3, ham (SDA 0.2%, 35 Day): 0.76ab mg FA/100 g of fresh tissue
20:1 n-9, ham (SDA 0.2%, 35 Day): 22.0 mg FA/100 g of fresh tissue
20:2 n-6, ham (SDA 0.2%, 35 Day): 11.4a mg FA/100 g of fresh tissue
20:3 n-3, ham (SDA 0.2%, 35 Day): 0.91 mg FA/100 g of fresh tissue
20:4 n-3, ham (SDA 0.2%, 35 Day): 2.23ab mg FA/100 g of fresh tissue
20:4 n-6, ham (SDA 0.2%, 35 Day): 57.4 mg FA/100 g of fresh tissue
20:5 n-3, ham (SDA 0.2%, 35 Day): 3.98a mg FA/100 g of fresh tissue
22:1 n-11, ham (SDA 0.2%, 35 Day): 1.06ab mg FA/100 g of fresh tissue
22:5 n-3, ham (SDA 0.2%, 35 Day): 11.1b mg FA/100 g of fresh tissue
22:6 n-3, ham (SDA 0.2%, 35 Day): 2.21 mg FA/100 g of fresh tissue
Lipid content, ham (SDA 0.2%, 35 Day): 3.15%
Total PUFA, ham (SDA 0.2%, 35 Day): 377.9 mg FA/100 g of fresh tissue
Total monoenes, ham (SDA 0.2%, 35 Day): 1600 mg FA/100 g of fresh tissue
Total n-3, ham (SDA 0.2%, 35 Day): 26.8a mg FA/100 g of fresh tissue
Total n-6, ham (SDA 0.2%, 35 Day): 351.2 mg FA/100 g of fresh tissue
Total saturates, ham (SDA 0.2%, 35 Day): 1029.0 mg FA/100 g of fresh tissue
n-3/n-6, ham (SDA 0.2%, 35 Day): 0.080b
12:0, ham (SDA 0.4%, 35 Day): 2.22 mg FA/100 g of fresh tissue
14:0, ham (SDA 0.4%, 35 Day): 38.2 mg FA/100 g of fresh tissue
16:0, ham (SDA 0.4%, 35 Day): 748.4 mg FA/100 g of fresh tissue
16:1 n-7, ham (SDA 0.4%, 35 Day): 121.6 mg FA/100 g of fresh tissue
18:0, ham (SDA 0.4%, 35 Day): 370.6 mg FA/100 g of fresh tissue
18:1 n-7, ham (SDA 0.4%, 35 Day): 151.0 mg FA/100 g of fresh tissue
18:1 n-9, ham (SDA 0.4%, 35 Day): 1404.9 mg FA/100 g of fresh tissue
18:2 n-6, ham (SDA 0.4%, 35 Day): 316.6 mg FA/100 g of fresh tissue
18:3 n-3, ham (SDA 0.4%, 35 Day): 9.17 mg FA/100 g of fresh tissue
18:4 n-3, ham (SDA 0.4%, 35 Day): 1.45b mg FA/100 g of fresh tissue
20:1 n-9, ham (SDA 0.4%, 35 Day): 23.6 mg FA/100 g of fresh tissue
20:2 n-6, ham (SDA 0.4%, 35 Day): 12.7a mg FA/100 g of fresh tissue
20:3 n-3, ham (SDA 0.4%, 35 Day): 1.49 mg FA/100 g of fresh tissue
20:4 n-3, ham (SDA 0.4%, 35 Day): 5.04bc mg FA/100 g of fresh tissue
20:4 n-6, ham (SDA 0.4%, 35 Day): 64.3 mg FA/100 g of fresh tissue
20:5 n-3, ham (SDA 0.4%, 35 Day): 7.91b mg FA/100 g of fresh tissue
22:1 n-11, ham (SDA 0.4%, 35 Day): 1.25b mg FA/100 g of fresh tissue
22:5 n-3, ham (SDA 0.4%, 35 Day): 15.2c mg FA/100 g of fresh tissue
22:6 n-3, ham (SDA 0.4%, 35 Day): 2.59 mg FA/100 g of fresh tissue
Lipid content, ham (SDA 0.4%, 35 Day): 3.5%
Total PUFA, ham (SDA 0.4%, 35 Day): 459.2 mg FA/100 g of fresh tissue
Total monoenes, ham (SDA 0.4%, 35 Day): 1715 mg FA/100 g of fresh tissue
Total n-3, ham (SDA 0.4%, 35 Day): 42.9b mg FA/100 g of fresh tissue
Total n-6, ham (SDA 0.4%, 35 Day): 416.4 mg FA/100 g of fresh tissue
Total saturates, ham (SDA 0.4%, 35 Day): 1166.5 mg FA/100 g of fresh tissue
n-3/n-6, ham (SDA 0.4%, 35 Day): 0.101bc
12:0, ham (SDA 0.6%, 35 Day): 1.37 mg FA/100 g of fresh tissue
14:0, ham (SDA 0.6%, 35 Day): 23.9 mg FA/100 g of fresh tissue
16:0, ham (SDA 0.6%, 35 Day): 482.6 mg FA/100 g of fresh tissue
16:1 n-7, ham (SDA 0.6%, 35 Day): 69.5 mg FA/100 g of fresh tissue
18:0, ham (SDA 0.6%, 35 Day): 252.5 mg FA/100 g of fresh tissue
18:1 n-7, ham (SDA 0.6%, 35 Day): 92.6 mg FA/100 g of fresh tissue
18:1 n-9, ham (SDA 0.6%, 35 Day): 854.9 mg FA/100 g of fresh tissue
18:2 n-6, ham (SDA 0.6%, 35 Day): 215.7 mg FA/100 g of fresh tissue
18:3 n-3, ham (SDA 0.6%, 35 Day): 5.03 mg FA/100 g of fresh tissue
